Laboratory results: PMC12827894, “Structure-guided design of picomolar-level macrocyclic TRPC5 channel inhibitors with antidepressant activity” (Acta Pharmaceutica Sinica. B, 2025)
Where a SMILES comes first, the peptide text is derived from it. Bridges are numbered along the chain shown (N, C = ends).

What was measured:
[1] = target: T1, IKs (Homo sapiens, UniProt P51787); assay: SafetyOne44 panel ion channels: IKs; assay type: cell-based
T1 construct: ICE Bioscience ICESTP SafetyOne44 Panel

[2] = target: T2, nAChRα4β2 (Homo sapiens, UniProt P17787+P43681); assay: SafetyOne44 panel ion channels: nAChRα4β2; assay type: cell-based; details: nAChRα4β2, antagonist mode; read-out: Antagonist Reference Compounds IC50
T2 construct: ICE Bioscience ICESTP SafetyOne44 Panel
T2 sequence (P43681 29-627 limits assumed): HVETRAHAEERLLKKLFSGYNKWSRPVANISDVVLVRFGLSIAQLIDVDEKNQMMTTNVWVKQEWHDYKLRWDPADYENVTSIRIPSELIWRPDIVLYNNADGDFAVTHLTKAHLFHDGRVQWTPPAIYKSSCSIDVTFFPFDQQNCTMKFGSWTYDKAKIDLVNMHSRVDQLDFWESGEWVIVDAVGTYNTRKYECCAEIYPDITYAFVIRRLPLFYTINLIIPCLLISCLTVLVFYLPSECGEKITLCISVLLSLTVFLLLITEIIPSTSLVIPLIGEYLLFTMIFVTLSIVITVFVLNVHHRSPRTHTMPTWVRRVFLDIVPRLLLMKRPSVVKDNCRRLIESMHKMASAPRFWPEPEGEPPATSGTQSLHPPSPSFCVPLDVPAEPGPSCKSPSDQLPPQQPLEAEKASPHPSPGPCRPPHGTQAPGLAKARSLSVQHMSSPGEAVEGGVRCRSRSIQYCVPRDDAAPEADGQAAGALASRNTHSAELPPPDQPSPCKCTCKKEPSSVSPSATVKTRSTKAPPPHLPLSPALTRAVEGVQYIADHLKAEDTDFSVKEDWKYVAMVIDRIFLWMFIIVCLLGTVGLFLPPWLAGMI
T2 sequence (P17787 26-502): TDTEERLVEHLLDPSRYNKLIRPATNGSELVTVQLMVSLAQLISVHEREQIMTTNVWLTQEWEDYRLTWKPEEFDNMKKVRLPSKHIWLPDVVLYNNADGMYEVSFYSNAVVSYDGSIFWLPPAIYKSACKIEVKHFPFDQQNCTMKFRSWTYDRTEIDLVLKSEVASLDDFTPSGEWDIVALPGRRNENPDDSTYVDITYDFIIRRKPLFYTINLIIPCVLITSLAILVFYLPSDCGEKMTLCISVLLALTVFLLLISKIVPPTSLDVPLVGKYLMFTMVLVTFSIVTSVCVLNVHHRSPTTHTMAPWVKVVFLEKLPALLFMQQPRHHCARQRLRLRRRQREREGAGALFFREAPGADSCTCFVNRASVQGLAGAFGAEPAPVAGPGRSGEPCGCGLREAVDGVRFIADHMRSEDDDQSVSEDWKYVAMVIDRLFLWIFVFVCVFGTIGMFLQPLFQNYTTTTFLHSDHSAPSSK

[3] = target: T3, DAT (Homo sapiens, UniProt Q01959); assay: SafetyOne44 panel: DAT; assay type: cell-based; details: read-out: Antagonist Reference Compound IC50
T3 construct: purchased ICE Bioscience ICESTP™ SafetyOne44 Panel
T3 sequence (Q01959 whole entry): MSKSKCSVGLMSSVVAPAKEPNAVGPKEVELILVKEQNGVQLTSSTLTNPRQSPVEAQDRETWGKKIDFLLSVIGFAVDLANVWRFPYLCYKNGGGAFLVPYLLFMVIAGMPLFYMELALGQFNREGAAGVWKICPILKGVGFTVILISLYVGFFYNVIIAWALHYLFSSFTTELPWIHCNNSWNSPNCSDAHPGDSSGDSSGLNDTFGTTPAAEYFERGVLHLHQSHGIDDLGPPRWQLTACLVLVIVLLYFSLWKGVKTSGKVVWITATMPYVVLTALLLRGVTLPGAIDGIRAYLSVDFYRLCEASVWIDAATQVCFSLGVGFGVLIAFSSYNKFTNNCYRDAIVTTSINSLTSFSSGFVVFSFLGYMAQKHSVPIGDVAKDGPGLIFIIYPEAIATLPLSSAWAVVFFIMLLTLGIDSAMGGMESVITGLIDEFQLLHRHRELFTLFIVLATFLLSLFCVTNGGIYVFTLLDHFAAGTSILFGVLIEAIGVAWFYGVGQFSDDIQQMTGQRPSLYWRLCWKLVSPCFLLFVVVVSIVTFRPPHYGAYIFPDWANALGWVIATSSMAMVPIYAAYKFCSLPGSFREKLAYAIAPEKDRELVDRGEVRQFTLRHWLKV

[4] = target: T4, 5-HTT (Homo sapiens, UniProt P31645); assay: SafetyOne44 panel: 5-HTT; assay type: cell-based; details: read-out: Antagonist Reference Compound IC50
T4 construct: purchased ICE Bioscience ICESTP™ SafetyOne44 Panel

[5] = target: T5, NET (Homo sapiens, UniProt P23975); assay: SafetyOne44 panel: NET; assay type: cell-based
T5 construct: ICE Bioscience ICESTP SafetyOne44 Panel
T5 sequence (P23975 whole entry): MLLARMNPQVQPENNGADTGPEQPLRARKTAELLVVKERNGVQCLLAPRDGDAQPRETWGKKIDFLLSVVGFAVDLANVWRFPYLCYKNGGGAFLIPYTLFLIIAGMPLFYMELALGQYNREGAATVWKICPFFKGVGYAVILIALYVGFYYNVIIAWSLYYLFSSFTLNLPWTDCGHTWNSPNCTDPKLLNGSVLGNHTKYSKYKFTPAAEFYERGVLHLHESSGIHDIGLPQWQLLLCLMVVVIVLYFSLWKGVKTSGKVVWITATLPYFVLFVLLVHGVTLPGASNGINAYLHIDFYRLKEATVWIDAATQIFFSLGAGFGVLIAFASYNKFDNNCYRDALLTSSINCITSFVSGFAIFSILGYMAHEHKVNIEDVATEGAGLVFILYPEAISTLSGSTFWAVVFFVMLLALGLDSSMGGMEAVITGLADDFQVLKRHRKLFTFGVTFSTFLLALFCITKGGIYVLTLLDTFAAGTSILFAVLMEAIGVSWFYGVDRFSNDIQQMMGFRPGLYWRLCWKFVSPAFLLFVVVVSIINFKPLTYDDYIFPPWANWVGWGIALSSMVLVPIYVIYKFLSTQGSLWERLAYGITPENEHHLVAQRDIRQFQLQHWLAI

[6] = target: T6, NR1/NR2B (Homo sapiens, UniProt Q05586+Q13224); assay: SafetyOne44 panel ion channels: NR1/NR2B; assay type: cell-based
T6 construct: ICE Bioscience ICESTP SafetyOne44 Panel
T6 sequence (Q13224 27-1484, other chains not shown): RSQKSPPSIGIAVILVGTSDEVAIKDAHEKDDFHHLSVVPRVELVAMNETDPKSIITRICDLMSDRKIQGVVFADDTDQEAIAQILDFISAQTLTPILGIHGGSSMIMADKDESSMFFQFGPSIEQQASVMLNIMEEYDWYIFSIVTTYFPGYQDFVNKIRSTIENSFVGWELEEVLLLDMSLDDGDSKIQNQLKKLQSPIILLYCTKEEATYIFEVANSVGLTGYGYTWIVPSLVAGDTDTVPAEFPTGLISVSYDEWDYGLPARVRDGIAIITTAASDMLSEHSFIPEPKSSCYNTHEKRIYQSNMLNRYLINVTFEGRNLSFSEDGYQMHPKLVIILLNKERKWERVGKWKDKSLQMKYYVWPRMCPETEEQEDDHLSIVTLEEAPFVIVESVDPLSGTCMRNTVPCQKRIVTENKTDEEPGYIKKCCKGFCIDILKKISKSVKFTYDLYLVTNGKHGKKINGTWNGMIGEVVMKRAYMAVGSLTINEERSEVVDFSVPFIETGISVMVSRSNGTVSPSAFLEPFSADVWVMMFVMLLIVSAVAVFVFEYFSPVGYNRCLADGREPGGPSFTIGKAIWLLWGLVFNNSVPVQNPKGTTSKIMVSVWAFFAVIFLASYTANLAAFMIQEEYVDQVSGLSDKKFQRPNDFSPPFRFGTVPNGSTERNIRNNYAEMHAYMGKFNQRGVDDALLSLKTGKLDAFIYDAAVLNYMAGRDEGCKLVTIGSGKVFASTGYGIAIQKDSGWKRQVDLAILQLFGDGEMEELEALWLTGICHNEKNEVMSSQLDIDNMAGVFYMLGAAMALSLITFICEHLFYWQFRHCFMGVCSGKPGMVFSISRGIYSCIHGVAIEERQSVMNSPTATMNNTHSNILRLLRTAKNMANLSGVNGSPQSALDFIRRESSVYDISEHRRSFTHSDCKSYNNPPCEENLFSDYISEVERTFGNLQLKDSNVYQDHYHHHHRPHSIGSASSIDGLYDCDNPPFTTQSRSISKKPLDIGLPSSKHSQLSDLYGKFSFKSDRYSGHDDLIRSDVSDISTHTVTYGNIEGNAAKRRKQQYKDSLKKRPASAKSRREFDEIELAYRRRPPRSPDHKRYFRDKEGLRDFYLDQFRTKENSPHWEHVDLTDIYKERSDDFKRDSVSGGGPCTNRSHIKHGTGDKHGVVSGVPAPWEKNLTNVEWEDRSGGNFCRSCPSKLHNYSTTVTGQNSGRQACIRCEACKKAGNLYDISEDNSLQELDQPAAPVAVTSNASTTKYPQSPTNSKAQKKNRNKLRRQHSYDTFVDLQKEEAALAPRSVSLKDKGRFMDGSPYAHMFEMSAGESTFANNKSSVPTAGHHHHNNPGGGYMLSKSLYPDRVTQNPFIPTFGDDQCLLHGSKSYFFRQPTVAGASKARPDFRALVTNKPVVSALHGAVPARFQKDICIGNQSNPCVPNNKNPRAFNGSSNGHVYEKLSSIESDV

[7] = target: T7, ETA (Homo sapiens, UniProt P25101); assay: SafetyOne44 panel: ETA; assay type: cell-based
T7 construct: purchased ICE Bioscience ICESTP™ SafetyOne44 Panel
T7 sequence (P25101 21-427): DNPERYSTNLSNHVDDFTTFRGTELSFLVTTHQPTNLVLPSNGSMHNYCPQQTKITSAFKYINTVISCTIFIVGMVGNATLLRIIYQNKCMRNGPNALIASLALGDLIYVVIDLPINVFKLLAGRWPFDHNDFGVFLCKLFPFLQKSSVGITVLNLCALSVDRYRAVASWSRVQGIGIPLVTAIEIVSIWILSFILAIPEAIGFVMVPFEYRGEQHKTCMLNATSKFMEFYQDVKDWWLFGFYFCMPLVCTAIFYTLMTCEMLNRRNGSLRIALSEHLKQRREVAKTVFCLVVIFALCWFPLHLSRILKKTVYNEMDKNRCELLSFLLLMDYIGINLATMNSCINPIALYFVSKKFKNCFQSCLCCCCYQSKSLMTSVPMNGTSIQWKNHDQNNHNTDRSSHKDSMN

[8] = target: T8, CCK1 (Homo sapiens, UniProt P32238); assay: SafetyOne44 panel: CCK1; assay type: cell-based; details: CCK1, antagonist mode; read-out: Antagonist Reference Compound IC50
T8 construct: purchased ICE Bioscience ICESTP™ SafetyOne44 Panel
T8 sequence (P32238 1-428): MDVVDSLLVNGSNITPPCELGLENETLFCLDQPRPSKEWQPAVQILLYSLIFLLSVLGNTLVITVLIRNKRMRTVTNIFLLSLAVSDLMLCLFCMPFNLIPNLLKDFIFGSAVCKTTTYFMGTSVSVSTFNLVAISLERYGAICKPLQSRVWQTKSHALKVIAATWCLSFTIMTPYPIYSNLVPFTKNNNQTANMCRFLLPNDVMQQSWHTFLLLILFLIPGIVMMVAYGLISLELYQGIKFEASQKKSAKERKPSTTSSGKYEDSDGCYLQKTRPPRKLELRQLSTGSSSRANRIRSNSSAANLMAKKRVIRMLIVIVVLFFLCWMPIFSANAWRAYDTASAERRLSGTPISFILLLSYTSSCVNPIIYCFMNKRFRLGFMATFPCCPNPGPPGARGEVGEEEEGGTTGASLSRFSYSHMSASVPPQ

[9] = target: T9, H2 (Homo sapiens, UniProt P25021); assay: SafetyOne44 panel: H2; assay type: cell-based; details: H2, antagonist mode; read-out: Antagonist Reference Compound IC50
T9 construct: purchased ICE Bioscience ICESTP™ SafetyOne44 Panel
T9 sequence (P25021 whole entry): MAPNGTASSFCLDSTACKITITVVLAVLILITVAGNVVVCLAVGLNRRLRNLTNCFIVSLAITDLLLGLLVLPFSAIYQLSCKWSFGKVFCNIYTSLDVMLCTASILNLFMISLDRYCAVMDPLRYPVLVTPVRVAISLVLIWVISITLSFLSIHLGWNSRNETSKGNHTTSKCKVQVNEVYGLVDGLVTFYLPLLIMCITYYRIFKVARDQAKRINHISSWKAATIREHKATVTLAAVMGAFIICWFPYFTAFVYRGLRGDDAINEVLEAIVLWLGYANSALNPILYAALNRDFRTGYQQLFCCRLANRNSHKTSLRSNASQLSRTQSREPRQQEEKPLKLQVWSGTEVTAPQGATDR

[10] = target: T10, 5-HT2B (Homo sapiens, UniProt P41595); assay: cell-based; assay type: cell-based; details: read-out: Antagonist Reference Compound IC50
T10 construct: purchased ICE Bioscience ICESTP SafetyOne44 Panel

[11] = target: T11, 5-HT1B (Homo sapiens, UniProt P28222); assay: cell-based; details: agonist mode, read-out: Agonist Reference Compound EC50
T11 construct: purchased ICE Bioscience ICESTP SafetyOne44 Panel
T11 sequence (P28222 whole entry): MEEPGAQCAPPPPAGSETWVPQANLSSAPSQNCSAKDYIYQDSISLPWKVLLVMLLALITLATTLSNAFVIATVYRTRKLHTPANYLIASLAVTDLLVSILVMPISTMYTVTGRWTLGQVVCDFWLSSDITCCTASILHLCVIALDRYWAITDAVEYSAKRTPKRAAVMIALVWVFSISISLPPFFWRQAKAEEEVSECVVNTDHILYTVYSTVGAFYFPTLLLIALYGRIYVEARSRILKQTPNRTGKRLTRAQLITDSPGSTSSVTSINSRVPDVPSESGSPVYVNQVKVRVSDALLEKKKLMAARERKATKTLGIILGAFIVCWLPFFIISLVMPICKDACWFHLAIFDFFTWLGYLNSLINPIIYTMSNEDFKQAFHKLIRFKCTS

[12] = target: T12, LCK (Homo sapiens, UniProt P06239); assay: biochemical; details: read-out: Antagonist Reference Compound IC50
T12 construct: purchased ICE Bioscience ICESTP™ SafetyOne44 Panel
T12 sequence (P06239 whole entry): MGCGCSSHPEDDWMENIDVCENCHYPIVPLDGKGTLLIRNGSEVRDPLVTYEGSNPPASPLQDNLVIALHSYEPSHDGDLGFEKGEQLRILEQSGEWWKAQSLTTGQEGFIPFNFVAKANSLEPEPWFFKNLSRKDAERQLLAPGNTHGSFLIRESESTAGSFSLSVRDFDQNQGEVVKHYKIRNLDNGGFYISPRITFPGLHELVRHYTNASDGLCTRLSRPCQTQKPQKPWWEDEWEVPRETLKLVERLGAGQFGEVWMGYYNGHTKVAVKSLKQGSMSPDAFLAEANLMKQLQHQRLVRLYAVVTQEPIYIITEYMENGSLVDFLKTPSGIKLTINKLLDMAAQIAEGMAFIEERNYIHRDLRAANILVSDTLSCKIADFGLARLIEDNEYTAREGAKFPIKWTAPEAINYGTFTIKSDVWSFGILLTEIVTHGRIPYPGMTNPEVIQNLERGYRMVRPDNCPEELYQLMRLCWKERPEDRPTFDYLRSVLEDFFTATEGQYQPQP

[13] = target: T13, TRPC5 (Homo sapiens, UniProt Q9UL62); assay: cell-based; details: for IC50: HEK293T, 100 nmol/L Englerin A, read-out: IC50, inhibition of TRPC5, calcium flux assay; for TRPC5 inhibitory activity in words (SAR): relative to compound 6
T13 sequence (Q9UL62 1-973): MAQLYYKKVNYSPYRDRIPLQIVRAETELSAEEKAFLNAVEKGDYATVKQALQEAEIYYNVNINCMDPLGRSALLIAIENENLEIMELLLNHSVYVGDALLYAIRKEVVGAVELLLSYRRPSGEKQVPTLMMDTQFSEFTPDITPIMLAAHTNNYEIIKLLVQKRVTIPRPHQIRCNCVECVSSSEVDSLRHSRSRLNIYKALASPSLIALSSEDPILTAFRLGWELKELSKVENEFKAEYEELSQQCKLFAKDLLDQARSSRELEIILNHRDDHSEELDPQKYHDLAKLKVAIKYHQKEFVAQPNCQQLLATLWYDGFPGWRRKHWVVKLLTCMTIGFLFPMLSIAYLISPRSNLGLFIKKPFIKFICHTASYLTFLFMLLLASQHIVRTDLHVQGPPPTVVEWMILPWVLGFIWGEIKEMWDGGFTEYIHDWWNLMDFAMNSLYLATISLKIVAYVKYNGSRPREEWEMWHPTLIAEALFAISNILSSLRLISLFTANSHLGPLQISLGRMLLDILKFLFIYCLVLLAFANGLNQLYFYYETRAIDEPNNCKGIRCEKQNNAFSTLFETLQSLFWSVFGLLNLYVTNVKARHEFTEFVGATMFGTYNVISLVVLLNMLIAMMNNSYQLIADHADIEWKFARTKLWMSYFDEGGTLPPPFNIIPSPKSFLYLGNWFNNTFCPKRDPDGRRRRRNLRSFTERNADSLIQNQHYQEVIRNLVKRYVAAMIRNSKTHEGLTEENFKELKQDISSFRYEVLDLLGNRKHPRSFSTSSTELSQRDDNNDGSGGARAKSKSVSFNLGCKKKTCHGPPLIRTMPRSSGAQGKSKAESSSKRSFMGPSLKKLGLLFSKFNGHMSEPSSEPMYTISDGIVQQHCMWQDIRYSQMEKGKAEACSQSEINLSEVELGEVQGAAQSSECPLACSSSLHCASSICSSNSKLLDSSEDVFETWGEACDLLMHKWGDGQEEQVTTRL

CCS(=O)(=O)N(C)[C@H]1c2cc(C#N)ccc2OC(C)(C)[C@@H]1O [293B, reference compound]
Antagonist Reference Compounds % Inh [1]: 90.96%

CCN(CC)CCOC(=O)C(c1ccccc1)c1ccccc1 [Adiphenine, reference compound]
IC50 [2]: 547 nM

c1ccc2cc([C@]34CNC[C@H]3C4)ccc2c1 [Centanafadine, reference compound]
IC50 [3]: 144 nM | IC50 [4]: 126 nM | IC50 [5]: 139 nM

NC(CCCP(=O)(O)O)C(=O)O [D-AP5, reference compound]
Antagonist Reference Compounds % Inh ([6]; NR1/NR2B, antagonist mode): 87.44%

CC[C@H](C)[C@H](NC(=O)[C@H](CC(=O)O)NC(=O)[C@H](CC(C)C)NC(=O)[C@H](Cc1cnc[nH]1)NC(=O)[C@@H]1CSSC[C@H](N)C(=O)N[C@@H](CO)C(=O)N[C@H]2CSSC[C@H](NC(=O)[C@H](CCC(=O)O)NC(=O)[C@H](CCCCN)NC(=O)[C@H](CC(=O)O)NC(=O)[C@H](CC(C)C)NC(=O)[C@H](Cc3c[nH]c4ccccc34)NC(=O)[C@H](CO)NC(=O)[C@H](CO)NC2=O)C(=O)N[C@@H](C(C)C)C(=O)N[C@@H](Cc2ccc(O)cc2)C(=O)N[C@@H](Cc2ccccc2)C(=O)N1)C(=O)N[C@H](C(=O)N[C@@H](Cc1c[nH]c2ccccc12)C(=O)O)[C@@H](C)CC [Endothelin 2, reference compound] (H-CSCSSWLDKECVYFCHLDIIW-OH; disulfide 1-15, 3-11)
EC50 [7]: 1.89 nM

NCC(=O)O [Glycine, reference compound]
EC50 ([6]; read-out: Agonist Reference Compounds EC50): 132 nM

CCCCCN(CCCOC)C(=O)C(CCC(=O)O)NC(=O)c1ccc(Cl)c(Cl)c1 (stereo not drawn) [Loxiglumide, reference compound]
IC50 [8]: 353 nM

CCCNS(=O)(=O)Nc1ncnc(OCCOc2ncc(Br)cn2)c1-c1ccc(Br)cc1 [Macitentan, reference compound]
IC50 ([7]; ETA, antagonist mode, read-out: Antagonist Reference Compound IC50): 3.29 nM

CNC(=C[N+](=O)[O-])NCCSCc1csc(CN(C)C)n1 [Nizatidine, reference compound]
IC50 [9]: 112 nM

CC(C)c1cc(-c2ccc(F)c3ccccc23)nc(N)n1 [RS-127445, reference compound]
IC50 [10]: 0.972 nM

COc1ccc2[nH]cc(C3=CCNCC3)c2c1 [RU 24969, reference compound]
EC50 [11]: 4.25 nM

Cc1cc(-c2cc(O)ccc2Cl)cc2nnc(Nc3ccc(OCCN4CCCC4)cc3)nc12 [TG 100572, reference compound]
IC50 [12]: 0.76 nM

O=c1c2c3nc(n2Cc2ccc(Cl)cc2)Oc2cccc(c2)OCCCCCn3c(=O)n1CCCO [compound 5]
IC50 [13]: 28.4 nM

O=c1c2c3nc(n2Cc2ccc(Cl)cc2)Oc2cccc(c2)OCCCCCCn3c(=O)n1CCCO [compound 6]
IC50 [13]: 1.1 nM

O=c1c2c3nc(n2Cc2ccc(Cl)cc2)Oc2cccc(c2)OCCCCCCCn3c(=O)n1CCCO [compound 7]
IC50 [13]: 19.2 nM

O=c1c2c3nc(n2Cc2ccc(Cl)cc2)Oc2cc(ccc2Cl)OCCCCCCn3c(=O)n1CCCO [compound 8]
IC50 [13]: 89.1 nM | fold decrease in activity (vs compound 6) ([13]; calcium flux, SAR): about 90 fold

O=c1c2c3nc(n2Cc2ccc(Cl)cc2)Oc2ccc(Cl)c(c2)OCCCCCCn3c(=O)n1CCCO [compound 9]
IC50 [13]: 97.5 nM | fold decrease in activity (vs compound 6) ([13]; calcium flux, SAR): about 90 fold

O=c1c2c3nc(n2Cc2ccc(Cl)cc2)Oc2cncc(c2)OCCCCCCn3c(=O)n1CCCO [compound 11]
IC50 [13]: 0.08 nM | fold increase in activity (vs compound 6) ([13]; calcium flux, SAR): about 10 fold

CCCn1c2nc3c1c(=O)n(CCCO)c(=O)n3CCCCCCOc1cccc(c1)O2 [compound 12]
IC50 [13]: 3500 nM | fold decrease in activity (vs compound 6) ([13]; calcium flux, SAR): over 1000 fold

O=c1c2c3nc(n2CCC(F)(F)F)Oc2cccc(c2)OCCCCCCn3c(=O)n1CCCO [compound 13]
IC50 [13]: 1200 nM | fold decrease in activity (vs compound 6) ([13]; calcium flux, SAR): over 1000 fold

O=c1c2c3nc(n2Cc2nccs2)Oc2cccc(c2)OCCCCCCn3c(=O)n1CCCO [compound 14]
IC50 [13]: 1500 nM | fold decrease in activity (vs compound 6) ([13]; calcium flux, SAR): over 1000 fold

O=c1c2c3nc(n2Cc2ncco2)Oc2cccc(c2)OCCCCCCn3c(=O)n1CCCO [compound 15]
IC50 [13]: > 10000 nM | fold decrease in activity (vs compound 6) ([13]; calcium flux, SAR): over 1000 fold

O=c1c2c3nc(n2Cc2cccc(Cl)c2)Oc2cccc(c2)OCCCCCCn3c(=O)n1CCCO [compound 16]
IC50 [13]: 1.8 nM | TRPC5 inhibitory activity in words (SAR) ([13]; calcium flux): tolerated

O=C1NCCCCCn2c(=O)n(CCCO)c(=O)c3c2nc(n3Cc2ccc(Cl)cc2)Oc2cccc1c2 [compound 17]
IC50 [13]: > 10000 nM | TRPC5 inhibitory activity in words (SAR) ([13]; calcium flux): completely abolishing the activity

O=c1c2c3nc(n2Cc2ccc(Cl)cc2)Oc2cccc(c2)COCCOCCn3c(=O)n1CCCO [compound 18]
IC50 [13]: 170 nM | fold decrease in activity (vs compound 6) ([13]; calcium flux, SAR): 100 fold

O=c1c2c3nc(n2Cc2ccc(Cl)cc2)Oc2cccc(c2)OCCNCCCn3c(=O)n1CCCO [compound 19]
IC50 [13]: 840 nM | TRPC5 inhibitory activity in words (SAR) ([13]; calcium flux): reduced activity

CC(C)(O)CCn1c(=O)c2c3nc(n2Cc2ccc(Cl)cc2)Oc2cccc(c2)OCCCCCCn3c1=O [compound 20]
IC50 [13]: 10000 nM

CC(O)CCn1c(=O)c2c3nc(n2Cc2ccc(Cl)cc2)Oc2cccc(c2)OCCCCCCn3c1=O (stereo not drawn) [compound 21]
IC50 [13]: 10 nM | TRPC5 inhibitory activity in words (SAR) ([13]; calcium flux): tolerated

CC(CO)Cn1c(=O)c2c3nc(n2Cc2ccc(Cl)cc2)Oc2cccc(c2)OCCCCCCn3c1=O (stereo not drawn) [compound 22]
IC50 [13]: 220 nM

O=c1c2c3nc(n2Cc2ccc(Cl)cc2)Oc2cccc(c2)OCCCCCCn3c(=O)n1CC(O)CO (stereo not drawn) [compound 23]
IC50 [13]: 790 nM

O=c1c2c3nc(n2Cc2ccc(Cl)cc2)Oc2cccc(c2)OCCCCCCn3c(=O)n1CC(F)(F)CO [compound 24]
IC50 [13]: 440 nM
